Consider eight molecules from PMC6150385, “The Blood-Brain Barrier Permeability of Six Indole Alkaloids from Uncariae Ramulus Cum Uncis in the MDCK-pHaMDR Cell Monolayer Model” (Molecules : A Journal of Synthetic Chemistry and Natural …, 2017).

The test system of one data set is P-gp. As to the kind of experiment: Transport in the presence and absence of verapamil (P-gp function / verapamil inhibition of efflux) in MDCK-pHaMDR cell monolayer. Here is the method: The cell monolayers were washed twice with prewarmed HBSS before the experiments were carried out. The HBSS medium in the AP side (0.5 mL, for absorption transport) or BL side (1.5 mL, for efflux transport) was replaced with different test compounds. The plates were shaken at 55 rpm for 90 min at 37 °C in a water bath. Samples were quantitatively collected from both sides of the cell monolayer, immediately frozen, lyophilized, and then preserved below −20 °C. To measure the intracellular amounts, the cell monolayers were lyophilized after three freeze (−20 °C)–thaw (room temperature) cycles and preserved below –20 °C. […] The tested concentrations of alkaloids 1–6 were 40 µM. The function of P-gp were tested by the transport of Rh123 at 10 µM in the presence and absence of verapamil (100 µM) undertaken as described above.
The verapamil inhibition experiment was carried out for alkaloids 1 and 3. The cells were pre-incubated with 100 µM of verapamil for 30 min before drug transport assays. Then verapamil was added to both sides, and 40 µM of test alkaloid was added to AP or BL side.
Papp in AP→BL or BL→AP direction of each alkaloid was calculated based on the following equation:Papp = dQ/dt/A/C0 (cm/s) where Q is the accumulation quantity of the alkaloid in the receiver side (μmol), dQ/dt is the linear appearance rate of the alkaloid in the receiver side (μmol/s), C0 is the initial concentration in the donor side (µM), and A is the membrane surface area (cm^2). All of the experiments were conducted in six duplications and data were expressed as the mean ± SD.

For data set [1], the system named is MDCK-pHaMDR cell monolayer. Particulars: for BBB permeability classification: MDCK-MDR1; for intracellular accumulation rates: dog, MDCK-MDR1, 90 min, 40 µM.
Data set [2] in a line: Bidirectional transport across MDCK-pHaMDR cell monolayer (in vitro BBB model). As to conditions: dog; for recovery at 90 min, 40 µM: MDCK-MDR1, Recovery Rate.
In data set [3] the test system is MDCK-pHaMDR cell monolayer. Described as above. Particulars: for Intracellular Accumulation / Efflux Ratio (Papp BL→AP/Papp AP→BL): 40 μM, 90 min; for transport mechanism: time- (30–180 min) and concentration- (20–120 μM) dependence.
The nature of another data set: in vitro. As to conditions: dog.
Data set [4] is described as follows: Stability of QC samples after three freeze-thaw cycles (HPLC). The format is physicochemical. As to conditions: three freeze (−20 °C)-thaw cycles, percentage remains. The procedure: The stock solutions of the six alkaloids were diluted to three concentrations (low, medium and high) as quality control (QC) samples. Accuracy, precision and stability of QC samples were validated. Accuracy and intraday precision were evaluated by determining the QC samples in three replicates on the same day, while interday precision was assessed by repeated analysis of the same QC samples over three consecutive days. Precision was estimated by RSD, which should not exceed 15%. Accuracy was assessed by comparison of the calculated mean concentrations with the spiked concentrations, and the acceptable range should be within 85–115%. The absolute recoveries of six alkaloids were determined by comparing the peak areas of analytes in QC samples with those of the standard solutions in MeOH with equivalent concentrations.

The mark [5] stands for this setting: dog, MDCK-MDR1, with verapamil 100 µM.
[6] abbreviates: MDCK-MDR1, Papp AP→BL, 40 μM, 90 min.

For `COC(=O)c1ccccc1-c1c2ccc(=N)cc-2oc2cc(N)ccc12` [Rh123, Rhodamine 123, reference compound], the apparent permeability from apical to basolateral (Papp A→B) at 90 min, 10 µM was found to be 0.843 ± 0.195 ×10⁻⁶ cm/s in the data set with P-gp (dog, MDCK-MDR1) and 1.27 ± 0.213 ×10⁻⁶ cm/s with P-gp (setting [5]). For the same molecule, the Papp B→A at 90 min, 10 µM in the data set on P-gp (dog, MDCK-MDR1) turned out to be 5.8 ± 0.259 ×10⁻⁶ cm/s; with P-gp (setting [5]), 1.71 ± 0.099 ×10⁻⁶ cm/s. Moreover, the efflux ratio at 90 min, 10 µM in the data set on P-gp (dog, MDCK-MDR1, Efflux Ratio (Papp BL→AP/Papp AP→BL), Rh123 10 μM, 90 min, absence of verapamil) was 6.88; with P-gp (dog, MDCK-MDR1, with verapamil 100 µM, Efflux Ratio (Papp BL→AP/Papp AP→BL), Rh123 10 μM with 100 μM verapamil, 90 min), 1.34.

Consider `CC[C@H]1CN2CC[C@]3(C(=O)Nc4ccccc43)[C@@H]2C[C@@H]1/C(=C\OC)C(=O)OC` [alkaloid 1, rhynchophylline], for which the BBB permeability classification result in data set [1] is listed as “moderate permeability”. Besides, the recovery at 90 min, 40 µM in data set [2] (AP→BL, 40 μM, 90 min) came to 99.9 ± 1.15%; in data set [2] (BL→AP, 40 μM, 90 min), 102.2 ± 0.47%. The “Intracellular Accumulation” value worked out at 0.36 ± 0.05% in data set [3] (AP→BL) and 0.40 ± 0.04% in data set [3] (BL→AP). The same molecule showed an apparent permeability from apical to basolateral (Papp A→B) at 90 min, 40 µM in the data set on P-gp (dog, MDCK-MDR1) of 22.2 ± 6.41 ×10⁻⁶ cm/s. For the same molecule, the Papp B→A at 90 min, 40 µM in the data set with P-gp (dog, MDCK-MDR1) is 18.1 ± 1.09 ×10⁻⁶ cm/s. Also, the P-gp substrate status entry in the data set on P-gp (from verapamil (100 µM) inhibition of efflux) was “substrates of P-gp”. Besides, the Papp B→A in the data set “in vitro” (MDCK-MDR1) amounted to 42.3 ± 2.48 ×10⁻⁶ cm/s. The Papp A→B in “in vitro” (MDCK-MDR1, Papp AP→BL (level), AP side to BL side) was roughly 1 ×10⁻⁶ cm/s; in “in vitro” (setting [6]), 4.37 ± 0.37 ×10⁻⁶ cm/s. The Stability in data set [4] (QC sample 5 μM) came to 96.32 ± 3.30%; in data set [4] (QC sample 60 μM) it was 96.86 ± 4.64%; in data set [4] (QC sample 120 μM), 102.59 ± 3.38%.

In the case of `CC[C@H]1CN2CC[C@@]3(C(=O)Nc4ccccc43)[C@@H]2C[C@@H]1/C(=C\OC)C(=O)OC` [alkaloid 2, isorhynchophylline], the recovery at 90 min, 40 µM in data set [2] (AP→BL, 40 μM, 90 min) is 94.3 ± 1.43%; in data set [2] (BL→AP, 40 μM, 90 min), 101 ± 1.89%. The results for the “Intracellular Accumulation” value in data set [3] (AP→BL) and in data set [3] (BL→AP) were 0.24 ± 0.04% and 0.37 ± 0.06%, respectively. The transport mechanism result in data set [3] is reported as “passive diffusion”. For the same molecule, the Papp in the data set “in vitro” (MDCK-MDR1) was roughly 10 ×10⁻⁶ cm/s. The same molecule yielded a Papp B→A in the data set “in vitro” (MDCK-MDR1) of 27.7 ± 0.93 ×10⁻⁶ cm/s. In “in vitro” (setting [6]), this molecule came in with a Papp A→B of 17.7 ± 1.2 ×10⁻⁶ cm/s. Moreover, the Stability in data set [4] (QC sample 5 μM) is 108.52 ± 1.08%; in data set [4] (QC sample 60 μM) it was 100.08 ± 2.26%; in data set [4] (QC sample 120 μM), 105.21 ± 3.28%.

For the molecule `C=C[C@H]1CN2CC[C@]3(C(=O)Nc4ccccc43)[C@@H]2C[C@@H]1/C(=C\OC)C(=O)OC` [alkaloid 3, corynoxeine], the BBB permeability classification result in data set [1] is “moderate permeability”. Further, the intracellular accumulation rates entry in data set [1] is “less than 0.4%”. Moreover, the recovery at 90 min, 40 µM in data set [2] (AP→BL, 40 μM, 90 min) was determined as 96.4 ± 1.17%; in data set [2] (BL→AP, 40 μM, 90 min), 99.6 ± 1.57%. Moreover, the entries for the “Efflux Ratio (Papp BL→AP/Papp AP→BL)” value in data set [3] and in data set [3] (listed as corynoxeine (3)) were 40.94 and “above 2”, respectively. Also, the Papp A→B at 90 min, 40 µM came to 17.2 ± 2.45 ×10⁻⁶ cm/s with P-gp (dog, MDCK-MDR1) and 1.21 ± 0.14 ×10⁻⁶ cm/s in “in vitro” (MDCK-MDR1). The Papp B→A at 90 min, 40 µM in the data set on P-gp (dog, MDCK-MDR1) was 17.5 ± 0.82 ×10⁻⁶ cm/s; in the data set “in vitro” (MDCK-MDR1), 49.7 ± 4.71 ×10⁻⁶ cm/s. The efflux ratio at 90 min, 40 µM with P-gp (dog, MDCK-MDR1, with verapamil 100 µM, Efflux Ratio (Papp BL→AP/Papp AP→BL), 40 μM alkaloid with 100 μM verapamil, 90 min) was less than 2. Also, the apical-to-basolateral permeability (Papp A→B) in “in vitro” (MDCK-MDR1) is roughly 1 ×10⁻⁶ cm/s. Moreover, the Stability in data set [4] (QC sample 5 μM) was determined as 106.67 ± 5.82%; in data set [4] (QC sample 60 μM) it was 102.37 ± 1.65%; in data set [4] (QC sample 120 μM) it was 101.52 ± 2.26%.

`C=C[C@H]1CN2CC[C@@]3(C(=O)Nc4ccccc43)[C@@H]2C[C@@H]1/C(=C\OC)C(=O)OC` [alkaloid 4, isocorynoxeine]: the intracellular accumulation rates result in data set [1] is recorded as “less than 0.4%”. In addition, the efflux ratio at 90 min, 40 µM in data set [2] (MDCK-MDR1, Efflux Ratio (Papp BL→AP/Papp AP→BL), 40 μM, 90 min) is less than 2. The recovery at 90 min, 40 µM in data set [2] (AP→BL, 40 μM, 90 min) was determined as 93 ± 1.4%; in data set [2] (BL→AP, 40 μM, 90 min), 98.47 ± 0.82%. For the same molecule, the Papp A→B at 90 min, 40 µM in the data set “in vitro” (MDCK-MDR1) came out at 11.1 ± 1.49 ×10⁻⁶ cm/s. The same molecule gave an apparent permeability from basolateral to apical (Papp B→A) at 90 min, 40 µM in the data set “in vitro” (MDCK-MDR1) of 20.7 ± 1.03 ×10⁻⁶ cm/s. The molecule also yielded a Papp at 90 min, 40 µM in “in vitro” (MDCK-MDR1) of roughly 10 ×10⁻⁶ cm/s. Besides, the Stability came out at 107.15 ± 5.06% in data set [4] (QC sample 5 μM), 102.72 ± 1.97% in data set [4] (QC sample 60 μM) and 102.02 ± 2.43% in data set [4] (QC sample 120 μM).

Turning to `CC[C@H]1CN2CCc3c([nH]c4ccccc34)[C@H]2C[C@@H]1/C(=C\OC)C(=O)OC` [alkaloid 5, hirsutine], the recovery at 90 min, 40 µM in data set [2] (AP→BL, 40 μM, 90 min) was found to be 89.3 ± 6.15%; in data set [2] (BL→AP, 40 μM, 90 min), 104 ± 1.94%. Moreover, in data set [3] (BL→AP), the “Intracellular Accumulation” value amounted to 6.19 ± 0.73%. In addition, the transport mechanism entry in data set [3] is listed as “passive diffusion”. In the data set “in vitro” (MDCK-MDR1), the apparent permeability (Papp) is roughly 10 ×10⁻⁶ cm/s. Further, the basolateral-to-apical permeability (Papp B→A) in the data set “in vitro” (MDCK-MDR1) amounted to 14.1 ± 0.73 ×10⁻⁶ cm/s. In addition, the apical-to-basolateral permeability (Papp A→B) in the data set “in vitro” (setting [6]) was found to be 15.1 ± 1.32 ×10⁻⁶ cm/s. Also, the Stability came to 106.1 ± 3.57% in data set [4] (QC sample 5 μM), 101.9 ± 6.51% in data set [4] (QC sample 60 μM) and 100.5 ± 4.86% in data set [4] (QC sample 120 μM).

In the case of `C=C[C@H]1CN2CCc3c([nH]c4ccccc34)[C@H]2C[C@@H]1/C(=C\OC)C(=O)OC` [alkaloid 6, hirsuteine], the recovery at 90 min, 40 µM in data set [2] (AP→BL, 40 μM, 90 min) was determined as 88.9 ± 5.99%; in data set [2] (BL→AP, 40 μM, 90 min) it was 104 ± 1.17%. The molecule further returned a Papp A→B at 90 min, 40 µM in “in vitro” (MDCK-MDR1) of 14.9 ± 1.83 ×10⁻⁶ cm/s. In “in vitro” (MDCK-MDR1), this molecule yielded an apparent permeability from basolateral to apical (Papp B→A) at 90 min, 40 µM of 11.3 ± 1.8 ×10⁻⁶ cm/s. This molecule also came in with an apparent permeability coefficient (Papp) at 90 min, 40 µM in the data set “in vitro” (MDCK-MDR1) of roughly 10 ×10⁻⁶ cm/s. Moreover, the Stability in data set [4] (QC sample 5 μM) is on record as 106.89 ± 3.01%; in data set [4] (QC sample 60 μM) it was 103.80 ± 5.92%; in data set [4] (QC sample 120 μM), 102.23 ± 4.19%.

`Cn1c(=O)c2c(ncn2C)n(C)c1=O` [caffeine, reference compound] came in with an apparent permeability (Papp) at 90 min in data set [2] (MDCK-MDR1) of 30 ×10⁻⁶ cm/s.
